Patent publication US20200018743A1, “MINI-CANCERS UTILIZATION FOR PERSONALIZED CANCER DRUG REGIMENS” (THE JOHNS HOPKINS UNIVERSITY, priority 2017, published 2020)
Entries after “also recorded” stand apart in the source; their conditions may differ. Where two headings read alike, the source gives them in different places. Starred links: 1 amine or outer side, 2 acyl side, 3 side chain; linkers in the order of their positions; H or OH if unused. Positions of bridges follow the written chain, without caps; N, C: chain ends. Non-standard residues stand in square brackets, D forms with d. Residues, ends and D or L forms follow the SMILES beside them. Chains are numbered I, II in the order given. Actinocin(9to1) = Cc1c2oc3c(C)ccc(C(=O)[*:1])c3nc-2c(C(=O)[*:2])c(N)c1=O; NMeV = CN[C@H](C(=O)O)C(C)C; Sar = CNCC(=O)O

Columns and labels:
[1] = test system: 27 liver cancer PDO lines; assay: High throughput screening of NCI VII 129-drug panel on 27 liver cancer PDO lines (CellTiter-Glo); format: cell-based, human; conditions: for inter patient effect (mean cell viability per patient cancer specimen): across the 5 patients' cancers; for effectiveness across the cohort of primary liver mini-cancers / all 27 liver cancer PDO lines: 10 uM, CellTiter-Glo
Description: To pick out inter patient divergent drugs (i.e., drugs with discordant effect across the 5 patients), we calculated the mean cell viability per patient cancer specimen by averaging the effect of the drugs across all PDO lines established for the same patient. This mean cell viability per patient is a measure of how the tumor, as a whole, responds to a certain drug. Next, we calculated the standard deviation of the 5 means (one per patient) and ordered the data in decreasing order of the standard deviation. […] To further visualize the inter-patient divergence of drug effects, the inventors constructed a heat map of drug responses per each patient (utilizing the mean cell viability over all clones from each patient, FIG. 20B).
(§1) This intra tumor functional heterogeneity was investigated by calculating the standard deviation of a drug response across all PDO lines established from a patient tumor. […] The inventors chose one of the cancer specimens (CCA8) for further in-depth studies of intra-tumor functional heterogeneity and the identification of its drivers. […] To visualize this phenomenon, we calculated the standard deviation of each drug effect across the 6 PDOs (FIG. 20D). […] To this end, we first chose drugs that induced 30% or less viability in at least one of the 6 sister CCA PDO lines when tested at a 10 uM concentration. […] Of note, there is no known genetic alteration (mutational or otherwise) to predict the response of human cancers to proteasome inhibitors.
Take out Matrigel from −20 C and keep at 4 C overnight. Also keep pipette tips at 4 C overnight. Count cells. Mix cells with Matrigel so that you have 200 cells per uL of Matrigel. […] Plate 2 rows, then stop. Wait till the Matrigel is solid. Then add 100 uL of growth passage media. Then continue till all plate is filled up with cells. Place plate into incubator. Take picture with white light. After 4 days replace the media with media containing drugs (90 uL media+10 uL drug work solution). Use a multi-pipette.
(§2) PDOs were plated in 96-well or 384-well plates and cultured for 3 days. Next, media was changed with drug-containing media. The initial screen was performed at a concentration of 10 uM. After 4 days, viability was determined in each well with Cell TiterGlo (Cat #: G7572, Promega, Wis.) following the manufacturer's instruction. […] was measured with a plate reader (Perkin-Elmer EnVision Plate Reader). Drugs that induced less than 50% viability were chosen for future studies.

[2] = test system: CCA8 sister CCA PDO lines; assay: 129-drug panel on the 6 sister PDO lines of CCA8; format: cell-based, human
Description: as §1, §2

CCA PDO = assay: Drug testing on a CCA PDO line read by white light / bright field images; format: cell-based, human; conditions: for effect on PDO (shape, number or size of cystic PDO structures): 9-drug library, 10 uM, white light images; for effect on PDO growth (cytocidal / cytostatic): over 96 hours
Method: In preliminary studies, the inventors have obtained resection cancer tissue from 10 CCA patients. […] Pilots experiments were performed with a 9-drug library, at a standard HT screening drug concentration of 10 uM. For positive control, the inventors used 10% Triton X, while for negative control the inventors used DMSO at same concentration used to dissolve drugs. […] As proof of concept, the inventors then expanded to the 1,600 drug JHCCL Hopkins library (data not shown). […] This scale-up required a reproducible and accurate read out. We chose CellTiter-Glo (Promega), an ATP-based cytotoxicity assay that quantifies metabolically active cells. […] Next, the inventors sought to determine IC50s. […] Next, the inventors performed whole exome sequencing on a subset of these CCA PDOs. […] The inventors next performed pilot trials with high-content imaging. We utilized DRAQ5 (red) to stain nuclei and YOYO-1 (green in FIG. 9) to stain dead cells. In this experiment, we treated a CCA PDO culture with Gemcitabine, at concentrations from 10 to 0.1 uM. […] FIG. 10 is a representative 100× Hematoxylin and Eosin image of a PDX tumor.
Initial drug testing experiments were performed on one PDO line, with a 9-drug library, at a standard HT screening drug concentration of 10 uM. For these experiments, we utilized a CCA PDO line. For positive control, we used 10% Triton X, while for negative control we used DMSO […] same concentration used to dissolve drugs. For these experiments, we utilized white light images and equated the killing effect of drugs into shrinking of PDO cystic structures. […] To this end, we tested the 5 chemotherapy agents typically used in CCA patients, as well as several combinations (FIG. 18C). […] Next, we sought a fast, reproducible and relatively inexpensive read out of cell death (or inhibited proliferation). We chose CellTiter-Glo (Promega), which is an ATP-based cytotoxicity assay that quantifies metabolically active cells. […] Therefore, we have used CellTiter-Glo for all subsequent experiments. […] By using CellTiter-Glo, we quantified the viability of cells treated with single agents as well as combinations (as in FIG. 18C).

HCC = HCC patients; cited from earlier work

| Compound | killing effect / activity across the 6 PDO lines ([2]; CCA8, 10 uM) | effectiveness across the cohort of primary liver mini-cancers / all 27 liver cancer PDO lines [1] | further results |
| --- | --- | --- | --- |
| Cc1c2oc3c(C)ccc(C(=O)N[C@@H]4C(=O)N[C@H](C(C)C)C(=O)N5CCC[C@H]5C(=O)N(C)CC(=O)N(C)[C@@H](C(C)C)C(=O)O[C@@H]4C)c3nc-2c(C(=O)N[C@@H]2C(=O)N[C@H](C(C)C)C(=O)N3CCC[C@H]3C(=O)N(C)CC(=O)N(C)[C@@H](C(C)C)C(=O)O[C@@H]2C)c(N)c1=O [Dactinomycin, dactinomycin] (I: T[dV]P[Sar][NMeV] / II: T[dV]P[Sar][NMeV]; ester I:1-I:C, II:1-II:C; linker I:N-II:N via Actinocin(9to1)) | – | – | inter patient effect (mean cell viability per patient cancer specimen) [1]: work well in just 1 cancer |
| O=C(/C=C/c1cccc(S(=O)(=O)Nc2ccccc2)c1)NO [Belinostat] | moderate activity in 1/6 PDO lines and generally poor activity in 5/6 | – | – |
| plicamycin | effective across the 6 PDO lines | pan-effective | – |
| Nc1ccn([C@@H]2O[C@H](CO)[C@@H](O)C2(F)F)c(=O)n1 [Gemcitabine] | moderate activity in 1/6 and poor activity in 5/6 PDO lines | – | inter patient effect (mean cell viability per patient cancer specimen) [1]: work in majority of cancers, but not in all of them; effect on PDO (shape, number or size of cystic PDO structures) (CCA PDO): moderate cytostatic but not a cytocydal effect; effect on PDO growth (cytocidal / cytostatic) (CCA PDO): moderate cytostatic, but not cytocidal effect; effect on PDO growth (cytocidal / cytostatic) (CCA PDO; listed as Gemicitabine): partially effective |
| N.N.[Cl][Pt][Cl] [Cisplatin] | uniformly ineffective | – | effect on PDO (shape, number or size of cystic PDO structures) (CCA PDO): no effect; also recorded: did not appear to have any effect; effect on PDO (shape, number or size of cystic PDO structures) (CCA PDO; listed as cisplatin): no effect on the round shape of PDO; effectiveness in CCAs tested (CCA PDO; all 6 CCAs tested): ineffective; effect on PDO growth (cytocidal / cytostatic) (CCA PDO): ineffective; also recorded: unaffected PDO growth |
| O=C1CCC(N2C(=O)c3ccccc3C2=O)C(=O)N1 (stereo not shown) [Thalidomide] | uniformly ineffective | – | – |
| Cc1cc(Nc2ncc(Cl)c(Nc3ccccc3S(=O)(=O)C(C)C)n2)c(OC(C)C)cc1C1CCNCC1 [Ceritinib] | high activity in 3/6 and almost no activity in the rest 3/6 PDO lines | – | – |
| Cc1[nH]c2ccccc2c1CCNCc1ccc(/C=C/C(=O)NO)cc1 [Panobinostat, panobinostat] | – | pan-effective | – |
| N#Cc1ccc(C(c2ccc(C#N)cc2)n2cncn2)cc1 [Letrozole] | uniformly ineffective | – | – |
| CCC1=C[C@@H]2CN(C1)Cc1c([nH]c3ccccc13)[C@@](C(=O)OC)(c1cc3c(cc1OC)N(C)[C@H]1[C@@](O)(C(=O)OC)[C@H](OC(C)=O)[C@]4(CC)C=CCN5CC[C@]31[C@@H]54)C2 [Vinorelbine] | – | – | effect on PDO (shape, number or size of cystic PDO structures) (CCA PDO): effective |
| COc1cccc2c1C(=O)c1c(O)c3c(c(O)c1C2=O)C[C@@](O)(C(=O)CO)C[C@@H]3O[C@H]1C[C@H](N)[C@@H](O)[C@H](C)O1 [Epirubicin] | wide response | – | – |
| CO[C@@]12[C@H](COC(N)=O)C3=C(C(=O)C(C)=C(N)C3=O)N1C[C@@H]1N[C@@H]12 [Mitomycin, mitomycin] | – | – | killing effect / activity across the 6 PDO lines [2]: effective across the 6 PDO lines |
| CC[C@@]1(O)C(=O)OCc2c1cc1n(c2=O)Cc2cc3c(CN(C)C)c(O)ccc3nc2-1 [topotecan] | – | pan-effective | – |
| CC(C)C[C@H](NC(=O)CNC(=O)c1cc(Cl)ccc1Cl)B(O)O [Ixazomib, ixazomib] | effective across the 6 PDO lines | pan-effective | – |
| CS(=O)(=O)CCNCc1ccc(-c2ccc3ncnc(Nc4ccc(OCc5cccc(F)c5)c(Cl)c4)c3c2)o1 [Lapatinib] | uniformly ineffective | – | – |
| N[C@@H](Cc1ccc(N(CCCl)CCCl)cc1)C(=O)O [Melphalan] | uniformly ineffective | – | – |
| CC(C)C[C@H](NC(=O)[C@H](CCc1ccccc1)NC(=O)CN1CCOCC1)C(=O)N[C@@H](Cc1ccccc1)C(=O)N[C@@H](CC(C)C)C(=O)[C@@]1(C)CO1 [Carfilzomib, carifilzomib] | effective across the 6 PDO lines | pan-effective | – |
| C/C=C1\NC(=O)[C@H]2CSSCC/C=C/[C@H](CC(=O)N[C@H](C(C)C)C(=O)N2)OC(=O)[C@H](C(C)C)NC1=O [Romidepsin, romidepsin] | effective across the 6 PDO lines | pan-effective | – |
| CC(=O)[C@]1(O)Cc2c(O)c3c(c(O)c2[C@@H](O[C@H]2C[C@H](N)[C@H](O)[C@H](C)O2)C1)C(=O)c1ccccc1C3=O [Idarubicin, idarubicin] | effective across the 6 PDO lines | pan-effective | – |
| CNC(=O)c1cc(Oc2ccc(NC(=O)Nc3ccc(Cl)c(C(F)(F)F)c3)cc2)ccn1 [Sorafenib] | – | – | improvement of survival (HCC): 3 months; side effects (HCC): severe side effects; inter patient effect (mean cell viability per patient cancer specimen) [1]: work in majority of cancers, but not in all of them |
| COC(=O)C[C@](O)(CCCC(C)(C)O)C(=O)O[C@@H]1C(OC)=C[C@]23CCCN2CCc2cc4c(cc2[C@H]13)OCO4 [Omacetaxine, omacetaxine] | wide response | – | – |
| COc1cccc2c1C(=O)c1c(O)c3c(c(O)c1C2=O)C[C@@](O)(C(=O)CO)C[C@@H]3O[C@H]1C[C@H](N)[C@H](O)[C@H](C)O1 [Doxorubicin] | – | – | inter patient effect (mean cell viability per patient cancer specimen) [1]: work in majority of cancers, but not in all of them |
| CC[C@H](Nc1ncnc2[nH]cnc12)c1nc2cccc(F)c2c(=O)n1-c1ccccc1 [Idelalisib] | uniformly ineffective | – | – |
| CC[C@]1(O)C[C@H]2CN(CCc3c([nH]c4ccccc34)[C@@](C(=O)OC)(c3cc4c(cc3OC)N(C=O)[C@H]3[C@@](O)(C(=O)OC)[C@H](OC(C)=O)[C@]5(CC)C=CCN6CC[C@]43[C@@H]65)C2)C1 [vincristine] | – | – | inter patient effect (mean cell viability per patient cancer specimen) [1]: work well in just 1 cancer |
| COc1cccc2c1C(=O)c1c(O)c3c(c(O)c1C2=O)C[C@@](O)(C(C)=O)C[C@@H]3O[C@H]1C[C@H](N)[C@H](O)[C@H](C)O1 [daunorubicin] | – | pan-effective | – |
